Assay [1] deals with human lymphocytic cells (CRL-8155). Briefly: Mammalian cell growth inhibition assay, CRL-8155. It counts as cell-based. The note with it: for EC50: CRL8155, 48 h, read-out: CLR‐8155 EC50.
The subject of assay [2] is T. cruzi (Tulahuen strain, DTU VI) expressing beta-galactosidase. Put plainly: T. cruzi growth inhibition assay. It counts as cell-based, Trypanosoma cruzi. The note with it: read-out: T. cruzi EC50; averages of triplicate data; 3T3 host cells, 6 days.
Assay [3] deals with human hepatocellular cells (HepG2). Briefly: Mammalian cell growth inhibition assay, HepG2. The note with it: for EC50: HepG2, 48 h, read-out: Hep G2 EC50. It counts as cell-based.

The results in this text go back to PMC8048860 (Chemmedchem, 2020).

Consider `Cc1ccc2nc(-c3ccc(F)c(F)c3)c(CN3CCC(Cc4ccccc4)CC3)n2c1` [Compound 39], for which the EC50 was more than 50 µM in assay [1], 1.6 µM in assay [2] and more than 50 µM in assay [3].
Turning to `CCN(CC)CCCC(C)Nc1c2ccc(Cl)cc2nc2ccc(OC)cc12` (centres unmarked) [Quinacrine], the EC50 turned out to be 5.47 µM in assay [1] and 14.3 µM in assay [3]. Besides, the EC90 worked out at 15.7 µM in assay [1] (CRL8155, read-out: CRL‐8155 EC90 (control compound)) and 18.7 µM in assay [3] (HepG2, read-out: Hep G2 EC90 (control compound)).
With `Cc1ccc2nc(-c3ccc(F)c(F)c3)c(CN3CCN(C4CCCCC4)CC3)n2c1` [Compound 37], the 50% effective concentration (EC50) in assay [2] came to 2.6 µM.

Broadly, the EC50 is the concentration that produces a half-maximal response. The EC90 is the concentration needed for an effect of 90%.
